Laboratory results as given in patent US8778974B2, “Trisubstituted 1,2,4 triazoles” (Janssen Pharmaceutica NV, priority 2008, dated 2014).

Target: T1, hα7-wt nAChR-expressing GH4Cl cells (Homo sapiens, UniProt P36544)
T1 construct: expressed in transfected cells
Assay: Patch-clamp current recording (whole-cell), potentiation of choline 1 mM response, PAM type
Assay type: cell-based
Set-up: key to Pam type: Type 0 compounds minimally enhance the effect size of the current elicited by 1 mM choline.; Type 1 compounds enhance the effect size of the current elicited by 1 mM choline but minimally alter the kinetics of the receptor.; Type 2 compounds enhance the effect size of the current elicited by 1 mM choline while reducing the rate and/or the extent of desensitization.; Type 3 compounds enhance the effect size of the current elicited by 1 mM choline. When tested at higher concentrations up to 10 μM they completely inhibit desensitization, in particular a 1 mM choline application of 250 milliseconds.; Type 4 compounds allow for an initial desensitization of the receptor followed by a re-opening of the receptor during agonist application
Details: for EC50: according to Ex. D.2, "<5" = no top plateau reached at maximal concentration, read-out: Potency (pEC50) (converted); for Pam type: patch-clamp current recording, 1 mM choline
Description: The compounds of the present invention are classified as type 1-4, based on qualitative kinetic properties, as determined by whole-cell voltage-clamp recordings. This classification is based on the effect of an α7 PAM compound, as described hereinbefore, on the signal elicited by an agonist application. In particular, said agonist is choline at a concentration of 1 mM. In a preferred experimental setting, said α7 PAM compound and choline are simultaneously applied to the cell, as described hereinafter. Desensitization is defined as the closure of the receptor upon activation during the application of the agonist in whole-cell voltage-clamp electrophysiology measurements seen as the reduction of the […] current after initial activation by the agonist.
The definition of the PAM types 1-4 is described hereinafter: • Type 0 compounds minimally enhance the effect size of the current elicited by 1 mM choline. • Type 1 compounds enhance the effect size of the current elicited by 1 mM choline but minimally alter the kinetics of the receptor. In particular, the rate and the extent of desensitization, elicited by the agonist, is not affected. The compound-modulated response to 1 mM choline, therefore, is a close to linear scaling of the 1 mM choline response in absence of the α7 PAM compound. • Type 2 compounds enhance the effect size of the current elicited by 1 mM choline while reducing the rate and/or the extent of desensitization. • Type 3 compounds enhance the effect size of the current elicited by 1 mM choline. […] At low-potency concentrations of the α7 PAM compound, the agonist-induced activation, which is followed by desensitization, can still be separated from the compound-induced re-opening as an initial inward current-maximum. At higher potency concentrations of the α7 PAM compound, the re-opening occurs faster than the closure due to desensitization so that the initial current-maximum disappears.
Patch-clamp Current Recording
Patch-clamp recording from mammalian cells has provided a powerful means of assessing the function of membrane-bound proteins thought to be subunits of ligand-gated ion channels. Activation of such proteins by endogenous or exogenous ligands cause opening of a pore associated with the receptor through which ions flow down their electrochemical gradient. In the case of the hα7-wt nAChR-expressing GH4Cl recombinant cell line the preferential permeability to calcium of this receptor means that calcium flows into the cell upon activation by ACh, choline and other nicotinic ligands giving rise to a calcium current. Since this receptor rapidly desensitizes in the presence of agonist it is important an application system is used which is capable of very rapid switching of solutions (<100 ms) to prevent partial or full desensitisation of receptor responses coincident with the time of agonist application. Consequently, a second convenient technique to assess the enhancement of nicotinic efficacy is patch-clamp recording from hα7-wt nAChR-expressing GH4Cl cells coupled with a rapid-application system.
• a) Assay buffers • The external recording solution consisted of 152 mM NaCl, 5 mM KCl, 1 mM MgCl2, 1 mM Calcium, 10 mM HEPES; pH 7.3. The internal recording solution consisted of 140 mM CsCl, 10 mM HEPES, 10 mM EGTA, 1 mM MgCl2, pH 7.3. • b) Patch-clamp recording was carried out using a Patch-clamp amplifier (Multiclamp 700A, Axon Instruments, Calif., USA). hα7-wt nAChR-expressing GH4Cl cells were patch-clamp in the whole cell configuration (Hamill et al, 1981) with a borosilicate glass electrode of 1.5-3 MΩ tip resistance when filled with the internal recording solution. Recordings were made on cells with membrane resistance >500 MΩ and more preferably 1GΩ and series resistance <15 MΩ with at least 60% series resistance compensation. […]

T1 sequence (P36544 23-502): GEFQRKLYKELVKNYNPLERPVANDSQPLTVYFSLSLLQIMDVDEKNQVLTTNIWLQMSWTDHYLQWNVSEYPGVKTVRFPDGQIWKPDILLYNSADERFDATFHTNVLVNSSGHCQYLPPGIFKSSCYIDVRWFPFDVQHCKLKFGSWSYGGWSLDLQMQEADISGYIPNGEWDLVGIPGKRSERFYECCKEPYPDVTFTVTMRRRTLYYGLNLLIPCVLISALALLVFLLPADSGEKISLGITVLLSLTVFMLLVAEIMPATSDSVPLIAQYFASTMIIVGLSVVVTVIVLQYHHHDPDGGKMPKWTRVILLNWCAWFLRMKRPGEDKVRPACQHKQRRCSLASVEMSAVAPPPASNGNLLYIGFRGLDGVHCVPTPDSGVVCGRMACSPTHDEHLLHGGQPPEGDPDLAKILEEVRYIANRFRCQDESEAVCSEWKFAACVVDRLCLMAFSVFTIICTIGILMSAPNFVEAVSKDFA

Row | SMILES | EC50 [µM] | Pam type
1 | CNC(=O)CCc1nc(Nc2ccc(F)c(F)c2)nn1-c1ccc2c(c1)OCCO2 [E2, 3-[(3,4-Difluorophenyl)amino]-1-(2,3-dihydro-1,4-benzodioxin-6-yl)-N-methyl-1H-1,2,4-triazole-5-propanamide] | 1.02 | 3
2 | CN(C)C(=O)CCc1nc(Nc2ccc(F)c(F)c2)nn1-c1ccc2c(c1)OCCO2 [E3, 3-[(3,4-Difluorophenyl)amino]-1-(2,3-dihydro-1,4-benzodioxin-6-yl)-N,N-dimethyl-1H-1,2,4-triazole-5-propanamide] | 0.0437 | 4
3 | Cc1ncccc1-n1nc(Nc2cccc(OC(F)(F)F)c2)nc1CCC(=O)N(C)C [E5, N,N-Dimethyl-1-(2-methyl-3-pyridinyl)-3-[[3-(trifluoromethoxy)phenyl]amino]-1H-1,2,4-triazole-5-propanamide] | 1.17 | 4
4 | Cc1cc(-n2nc(Nc3ccc(F)c(C(F)(F)F)c3)nc2CCO)ccn1 [E16] | 0.525 | 
5 | CNC(=O)Cc1nc(Nc2ccc(F)c(F)c2)nn1-c1ccc2c(c1)OCCO2 [E36] | 1.74 | 4
6 | CNC(=O)CCc1nc(Nc2ccc(F)c(F)c2)nn1-c1ccc(OC)cc1 [E43] | 2 | 2
7 | CNC(=O)CCc1nc(Nc2ccc(F)c(C(F)(F)F)c2)nn1-c1ccc(OC)cc1 [E44] | 0.661 | 
8 | CNC(=O)CCc1nc(Nc2ccc(F)c(C(F)(F)F)c2)nn1-c1ccc(OC)c(OC)c1 [E46] | 1.02 | 
9 | CNC(=O)CCc1nc(Nc2ccc(F)c(F)c2)nn1-c1cccnc1 [E48] | > 10 | 
10 | CNC(=O)CCc1nc(Nc2ccc(F)c(F)c2)nn1-c1ccncc1 [E52] | > 30.2 | 
11 | CNC(=O)CCc1nc(Nc2ccc(F)c(C(F)(F)F)c2)nn1-c1ccc2c(c1)OCCO2 [E55] | 0.525 | 4
12 | COc1ccc(-n2nc(Nc3ccc(F)c(C(F)(F)F)c3)nc2CCC(=O)N(C)C)cc1 [E62] | 0.0302 | 4
13 | COc1ccc(-n2nc(Nc3ccc(F)c(F)c3)nc2CCC(=O)N(C)C)cc1 [E63] | 0.0603 | 4
14 | COc1ccc(-n2nc(Nc3ccc(F)c(F)c3)nc2CCC(=O)N(C)C)cc1OC [E64] | 0.525 | 4
15 | COc1ccc(-n2nc(Nc3ccc(F)c(C(F)(F)F)c3)nc2CCC(=O)N(C)C)cc1OC [E65] | 0.0708 | 4
16 | CN(C)C(=O)CCc1nc(Nc2ccc(F)c(F)c2)nn1-c1ccc(OC(F)(F)F)cc1 [E66] | 0.24 | 4
17 | CN(C)C(=O)CCc1nc(Nc2ccc(F)c(F)c2)nn1-c1ccncc1 [E67] | 0.447 | 4
18 | CN(C)C(=O)CCc1nc(Nc2ccc(F)c(C(F)(F)F)c2)nn1-c1ccncc1 [E68] | 0.105 | 
19 | CN(C)C(=O)CCc1nc(Nc2cccc(OC(F)(F)F)c2)nn1-c1ccncc1 [E69] | 0.324 | 
20 | CN(C)C(=O)CCc1nc(Nc2cccc(OC(F)(F)F)c2)nn1-c1cccnc1 [E71] | 0.617 | 4
21 | CN(C)C(=O)CCc1nc(Nc2ccc(F)c(C(F)(F)F)c2)nn1-c1cccnc1 [E72] | 0.339 | 
22 | CN(C)C(=O)CCc1nc(Nc2ccc(F)c(C(F)(F)F)c2)nn1-c1ccc2c(c1)OCCO2 [E77] | 0.0398 | 4
23 | O=C(CCc1nc(Nc2cccc(OC(F)(F)F)c2)nn1-c1cccnc1)N1CCCC1 [E78] | 0.309 | 

Row | SMILES | EC50 [µM] | Pam type
24 | O=C(CCc1nc(Nc2cccc(OC(F)(F)F)c2)nn1-c1cccnc1)N1CCC(O)C1 (stereo not shown) [E79] | 1.26 | 
25 | CCOC(=O)CCc1nc(Nc2cccc(OC(F)(F)F)c2)nn1-c1cccnc1 [E108] | 1.35 | 
26 | CCOC(=O)CCc1nc(Nc2ccc(F)c(F)c2)nn1-c1ccc2c(c1)OCCO2 [E114] | 0.151 | 
27 | CCOC(=O)CCc1nc(Nc2ccc(F)c(C(F)(F)F)c2)nn1-c1ccc2c(c1)OCCO2 [E115] | 0.158 | 
28 | Cc1ccc(-n2nc(Nc3ccc4c(c3)OC(F)(F)O4)nc2CCC(=O)N(C)C)cn1 [E117] | 0.191 | 4
29 | CC[C@H](O)Cc1nc(Nc2ccc(F)c(F)c2F)nn1-c1cc(C)nc(C)c1 [E127, (alphaS)-1-(2,6-dimethyl-4-pyridinyl)-alpha-ethyl-3-[(2,3,4-trifluorophenyl)amino]-1H-1,2,4-triazole-5-ethanol] | 0.269 | 2
30 | CC[C@H](O)Cc1nc(Nc2ccc(F)c(F)c2F)nn1-c1ccnc(C)c1 [E130, (alphaS)-alpha-ethyl-1-(2-methyl-4-pyridinyl)-3-[(2,3,4-trifluorophenyl)amino]-1H-1,2,4-triazole-5-ethanol] | 0.269 | 2
31 | CCNc1cc(-n2nc(Nc3ccc(F)c(F)c3)nc2C[C@@H](O)CC)ccn1 [E136] | 0.155 | 3
32 | CN(C)C(=O)CCc1nc(Nc2cc(F)c(F)c(Br)c2)nn1-c1ccc2c(c1)OCCO2 [E151] | 0.038 | 4
33 | Cc1cc(-n2nc(Nc3cccc(Cl)c3F)nc2CC(=O)NCC2CC2)cc(C)n1 [E154] | 0.219 | 2
34 | COc1ccc(-n2nc(Nc3cc(F)c(F)c(Br)c3)nc2CCC(=O)N(C)C)cc1 [E155] | 0.0288 | 1
35 | CCNC(=O)Cc1nc(Nc2ccc3c(c2)OC(F)(F)O3)nn1-c1cc(C)ncc1C [E163] | 2.51 | 4
36 | Cc1cc(-n2nc(Nc3ccc(F)c(F)c3)nc2CC(=O)NC2CCC2)cc(C)n1 [E169] | 0.295 | 2
37 | CN(C)C(=O)CCc1nc(Nc2cccc(OC(F)(F)F)c2)nn1-c1ccc2c(c1)OCCO2 [E170] | 0.0398 | 4
38 | CC[C@H](O)Cc1nc(Nc2cccc(Cl)c2F)nn1-c1cc(C)nc(C)c1 [E172] | 0.302 | 2
39 | CN(C)C(=O)CCc1nc(Nc2ccc3c(c2)OC(F)(F)O3)nn1-c1ccc2c(c1)OCCO2 [E176] | 0.0269 | 4
40 | COc1ccc(-n2nc(Nc3ccc4c(c3)OC(F)(F)O4)nc2CCC(=O)N(C)C)cc1 [E178] | 0.0363 | 4
41 | CC[C@H](O)Cc1nc(Nc2cc(F)cc(OC)c2)nn1-c1ccnc(C)c1 [E186, (alphaS)-alpha-ethyl-3-[(3-fluoro-5-methoxyphenyl)amino]-1-(2-methyl-4-pyridinyl)-1H-1,2,4-triazole-5-ethanol] | 1.02 | 4
42 | CC[C@H](O)Cc1nc(Nc2cc(F)cc(OC)c2)nn1-c1cc(C)nc(C)c1 [E190, (alphaS)-1-(2,6-dimethyl-4-pyridinyl)-alpha-ethyl-3-[(3-fluoro-5-methoxyphenyl)amino]-1H-1,2,4-triazole-5-ethanol] | 0.398 | 2
43 | CC[C@H](O)Cc1nc(Nc2ccc(OC)cc2)nn1-c1cc(C)nc(C)c1 [E203] | 1.35 | 2
44 | CC[C@H](O)Cc1nc(Nc2cccc(C(F)(F)F)c2)nn1-c1ccnc(C)c1 [E204] | 0.562 | 0
45 | CC[C@H](O)Cc1nc(Nc2cc(Cl)cc(OC)c2)nn1-c1cc(C)nc(C)c1 [E205, (alphaS)-3-[(3-chloro-5-methoxyphenyl)amino]-1-(2,6-dimethyl-4-pyridinyl)-alpha-ethyl-1H-1,2,4-triazole-5-ethanol] | 0.155 | 2
46 | CC[C@H](O)Cc1nc(Nc2cc(Cl)cc(OC)c2)nn1-c1ccnc(C)c1 [E206] | 0.17 | 4
